Experimental data: ChEMBL document CHEMBL1140542, “Cryptadines A and B, novel C27N3-type pentacyclic alkaloids from Lycopodium cryptomerinum” (Bioorg Med Chem, 2007)

Target: T1, Acetylcholinesterase (Bos taurus, UniProt P23795)
T1 sequence (P23795 whole entry): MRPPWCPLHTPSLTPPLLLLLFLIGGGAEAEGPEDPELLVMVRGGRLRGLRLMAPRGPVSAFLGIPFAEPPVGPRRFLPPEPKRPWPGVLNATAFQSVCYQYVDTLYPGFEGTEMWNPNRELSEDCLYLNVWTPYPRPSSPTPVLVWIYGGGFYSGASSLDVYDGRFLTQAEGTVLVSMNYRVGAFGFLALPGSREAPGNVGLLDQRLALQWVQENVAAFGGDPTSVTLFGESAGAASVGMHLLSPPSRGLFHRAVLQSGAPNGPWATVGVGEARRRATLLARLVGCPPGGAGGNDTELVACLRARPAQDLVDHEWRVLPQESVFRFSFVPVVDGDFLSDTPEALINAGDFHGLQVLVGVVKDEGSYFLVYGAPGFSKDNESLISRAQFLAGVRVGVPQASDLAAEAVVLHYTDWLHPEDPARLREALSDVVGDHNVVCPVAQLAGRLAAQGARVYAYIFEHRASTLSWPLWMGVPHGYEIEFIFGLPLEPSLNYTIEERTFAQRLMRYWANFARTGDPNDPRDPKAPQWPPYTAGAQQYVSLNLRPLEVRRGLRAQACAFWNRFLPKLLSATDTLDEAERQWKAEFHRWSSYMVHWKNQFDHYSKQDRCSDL
Assay: Inhibition of bovine acetylcholinesterase

Row | Compound | IC50
1 | CC(=O)N1CCCC2=C(C[C@H]3CCC[C@H](CC4=C5CCCN(C)[C@H]5C[C@@H](C)C4)N3)C[C@H](C)C[C@@H]21 [CRYPTADINE A] | 106 µM
2 | CC(=O)N1CCCC2=C(C[C@H]3CCC[C@H](CC4=C5CCCN(C)[C@H]5C[C@H](C)C4)N3)C[C@H](C)C[C@@H]21 [CRYPTADINE B] | 18.5 µM
